# Biological target: T1, ERα (Homo sapiens, UniProt P03372)
# T1 construct: host or cells: MCF7
# T1 sequence (P03372 1-595): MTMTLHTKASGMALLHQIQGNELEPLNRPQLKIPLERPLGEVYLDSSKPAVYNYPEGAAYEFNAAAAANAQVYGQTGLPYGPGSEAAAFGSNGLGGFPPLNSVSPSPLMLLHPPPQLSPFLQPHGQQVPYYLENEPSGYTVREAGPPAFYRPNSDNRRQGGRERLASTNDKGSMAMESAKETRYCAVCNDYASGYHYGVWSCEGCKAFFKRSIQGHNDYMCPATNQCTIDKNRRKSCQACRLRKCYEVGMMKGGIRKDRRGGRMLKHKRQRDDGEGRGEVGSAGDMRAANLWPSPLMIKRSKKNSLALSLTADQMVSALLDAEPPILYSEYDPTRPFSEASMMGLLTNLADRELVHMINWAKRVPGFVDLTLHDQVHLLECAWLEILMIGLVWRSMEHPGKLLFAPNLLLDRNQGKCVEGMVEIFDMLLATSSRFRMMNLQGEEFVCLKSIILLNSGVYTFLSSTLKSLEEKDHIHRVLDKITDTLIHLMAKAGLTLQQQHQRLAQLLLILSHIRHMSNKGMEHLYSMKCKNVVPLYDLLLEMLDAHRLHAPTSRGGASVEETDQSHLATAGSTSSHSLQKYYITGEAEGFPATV
# Experiment: Estrogen receptor degradation activity: breast cancer cell ERα in cell western assay
# Type: cell-based
# Settings: MCF7 cells, 4 hours, relative to fulvestrant 0.1 μM positive control
# Experimental: Test: Estrogen Receptor Degradation Activity Said test involves measuring the in vitro degradation activity of the compounds of the Table 1a. The measurements of the degradation activities were made using a breast cancer cell ERα in cell western assay as described hereunder. MCF7 cells (ATCC) were seeded in 384 wells microplate (collagen coated) at a concentration of 10000 cells/30 μL per well in red phenol free MEM alpha medium (invitrogen) containing 5% charcoal dextran striped FBS. The following day, 9 points serial 1:5 dilution of each compound was added to the cells in 2.5p L at final concentrations ranging from 0.3-0.0000018 μM (in table 2), or 0.1 μM for fulvestrant (using as positive control). At 4 hours post compound addition the cells were fixed by adding 25 μL of formalin (final concentration 5% formalin containing 0.1% triton) for 10 minutes at room temperature and then washed twice with PBS. Then, 50 μL of LI-COR blocking buffer containing 0.1% Triton was added to plate for 30 minutes at room temperature. LI-COR blocking buffer was removed and cells were incubated overnight at cold room with 50 μL anti-ER rabbit monoclonal antibody (Thermo scientific MA1-39540) diluted at 1:1000 in LI-COR blocking buffer containing 0.1% tween-20. Wells which were treated with blocking buffer but no antibody were used as background control. Wells were washed twice with PBS (0.1% tween-20) and incubated at 37° C. for 60 minutes in LI-COR (0.1% tween-20) containing goat anti-rabbit antibody Alexa 488 (1:1000) and Syto-64 a DNA dye (2 μM final concentration). Cells were then washed 3 times in PBS and scanned in ACUMEN explorer (TTP-Labtech). Integrated intensities in the green fluorescence and red fluorescence were measured to determine the levels of ERα and DNA respectively. The degradation activity with respect to estrogen receptors in this test is given by the concentration which degrades 50% of the estrogen receptor (or IC50) in nM. The % of ERα levels decrease were determined as follows: % inhibition=100*(1−(sample−fulvestrant: DMSO−fulvestrant)).
row,Structure (SMILES),% Degradation At 0.3 μM
1,"O=C(O)c1ccc2c(c1)CCCC(c1c(F)cccc1OC(F)(F)F)=C2c1ccc(CC2CN(CCCF)C2)cc1 [Compound 43, 8-(2-fluoro-6-(trifluoromethoxy)phenyl)-9-(4-((1-(3-fluoropropyl)azetidin-3-yl)methyl)phenyl)-6,7-dihydro-5H-benzo[7]annulene-3-carboxylic acid]",92%
2,"COc1cccc(Cl)c1C1=C(c2ccc(CC3CN(CCCF)C3)cc2)c2ccc(C(=O)O)cc2CCC1 [Compound 44, 8-(2-chloro-6-methoxyphenyl)-9-(4-((1-(3-fluoropropyl)azetidin-3-yl)methyl)phenyl)-6,7-dihydro-5H-benzo[7]annulene-3-carboxylic acid]",92%
3,"COc1cccc(F)c1C1=C(c2ccc(CC3CN(CCCF)C3)cc2)c2ccc(C(=O)O)cc2CCC1 [Compound 45, 8-(2-fluoro-6-methoxyphenyl)-9-(4-((1-(3-fluoropropyl)azetidin-3-yl)methyl)phenyl)-6,7-dihydro-5H-benzo[7]annulene-3-carboxylic acid]",92%
4,"COc1cccc(C2=C(c3ccc(CC4CN(CCCF)C4)cc3)c3ccc(C(=O)O)cc3CCC2)c1OC [Compound 46, 8-(2,3-dimethoxyphenyl)-9-(4-((1-(3-fluoropropyl)azetidin-3-yl)methyl)phenyl)-6,7-dihydro-5H-benzo[7]annulene-3-carboxylic acid]",93%
5,"O=C(O)c1ccc2c(c1)CCCC(c1ccc(F)c(O)c1F)=C2c1ccc(CC2CN(CCCF)C2)cc1 [Compound 47, 8-(2,4-difluoro-3-hydroxyphenyl)-9-(4-((1-(3-fluoropropyl)azetidin-3-yl)methyl)phenyl)-6,7-dihydro-5H-benzo[7]annulene-3-carboxylic acid]",100%
6,"COc1cccc(C)c1C1=C(c2ccc(CC3CN(CCCF)C3)cc2)c2ccc(C(=O)O)cc2CCC1.Cl [Compound 48, 9-(4-((1-(3-fluoropropyl)azetidin-3-yl)methyl)phenyl)-8-(2-methoxy-6-methylphenyl)-6,7-dihydro-5H-benzo[7]annulene-3-carboxylic acid, hydrochloride]",92%
7,"COc1c(C)cccc1C1=C(c2ccc(CC3CN(CCCF)C3)cc2)c2ccc(C(=O)O)cc2CCC1.Cl [Compound 49, 9-(4-((1-(3-fluoropropyl)azetidin-3-yl)methyl)phenyl)-8-(2-methoxy-3-methylphenyl)-6,7-dihydro-5H-benzo[7]annulene-3-carboxylic acid, hydrochloride]",92%
8,"O=C(O)c1ccc2c(c1)CCCC(c1c(Cl)cccc1OC(F)(F)F)=C2c1ccc(CC2CN(CCCF)C2)cc1 [Compound 50, 8-(2-chloro-6-(trifluoromethoxy)phenyl)-9-(4-((1-(3-fluoropropyl)azetidin-3-yl)methyl)phenyl)-6,7-dihydro-5H-benzo[7]annulene-3-carboxylic acid]",91%
9,"COc1cccc(OC)c1C1=C(c2ccc(CC3CN(CCCF)C3)cc2)c2ccc(C(=O)O)cc2CCC1.Cl [Compound 51, 8-(2,6-dimethoxyphenyl)-9-(4-((1-(3-fluoropropyl)azetidin-3-yl)methyl)phenyl)-6,7-dihydro-5H-benzo[7]annulene-3-carboxylic acid, hydrochloride]",92%
10,"O=C(O)c1ccc2c(c1)CCCC(c1ccc(C(F)(F)F)c(O)c1)=C2c1ccc(CC2CN(CCCF)C2)cc1 [Compound 52, 9-(4-((1-(3-fluoropropyl)azetidin-3-yl)methyl)phenyl)-8-(3-hydroxy-4-(trifluoromethyl)phenyl)-6,7-dihydro-5H-benzo[7]annulene-3-carboxylic acid]",90%
11,"Cc1cc(C)c(C2=C(c3ccc(CC4CN(CCCF)C4)cc3)c3ccc(C(=O)O)cc3CCC2)c(Cl)c1 [Compound 53, 8-(2-chloro-4,6-dimethylphenyl)-9-(4-((1-(3-fluoropropyl)azetidin-3-yl)methyl)phenyl)-6,7-dihydro-5H-benzo[7]annulene-3-carboxylic acid]",88%
12,"Cc1cccc(C2=C(c3ccc(CC4CN(CCCF)C4)cc3)c3ccc(C(=O)O)cc3CCC2)c1C(F)F.Cl [Compound 54, 8-(2-(difluoromethyl)-3-methylphenyl)-9-(4-((1-(3-fluoropropyl)azetidin-3-yl)methyl)phenyl)-6,7-dihydro-5H-benzo[7]annulene-3-carboxylic acid, hydrochloride]",90%
13,"COc1cc(C)c(C2=C(c3ccc(CC4CN(CCCF)C4)cc3)c3ccc(C(=O)O)cc3CCC2)c(C)c1 [Compound 55, 9-(4-((1-(3-fluoropropyl)azetidin-3-yl)methyl)phenyl)-8-(4-methoxy-2,6-dimethylphenyl)-6,7-dihydro-5H-benzo[7]annulene-3-carboxylic acid]",95%
14,"Cc1ccc(C2=C(c3ccc(CC4CN(CCCF)C4)cc3)c3ccc(C(=O)O)cc3CCC2)cc1O [Compound 56, 9-(4-((1-(3-fluoropropyl)azetidin-3-yl)methyl)phenyl)-8-(3-hydroxy-4-methylphenyl)-6,7-dihydro-5H-benzo[7]annulene-3-carboxylic acid]",95%
15,"Cc1ccc(C2=C(c3ccc(CC4CN(CCCF)C4)cc3)c3ccc(C(=O)O)cc3CCC2)c(C)c1F [Compound 57, 8-(3-fluoro-2,4-dimethylphenyl)-9-(4-((1-(3-fluoropropyl)azetidin-3-yl)methyl)phenyl)-6,7-dihydro-5H-benzo[7]annulene-3-carboxylic acid]",92%
16,"Cc1ccc(C2=C(c3ccc(CC4CN(CCCF)C4)cc3)c3ccc(C(=O)O)cc3CCC2)c(C)c1Cl [Compound 58, 8-(3-chloro-2,4-dimethylphenyl)-9-(4-((1-(3-fluoropropyl)azetidin-3-yl)methyl)phenyl)-6,7-dihydro-5H-benzo[7]annulene-3-carboxylic acid]",90%
17,"O=C(O)c1ccc2c(c1)CCCC(c1cccc(C(F)(F)F)c1C(F)(F)F)=C2c1ccc(CC2CN(CCCF)C2)cc1 [Compound 59, 8-(2,3-bis(trifluoromethyl)phenyl)-9-(4-((1-(3-fluoropropyl)azetidin-3-yl)methyl)phenyl)-6,7-dihydro-5H-benzo[7]annulene-3-carboxylic acid]",95%
18,"COc1ccc(C(F)F)c(C2=C(c3ccc(CC4CN(CCCF)C4)cc3)c3ccc(C(=O)O)cc3CCC2)c1.Cl [Compound 60, 8-(2-(difluoromethyl)-5-methoxyphenyl)-9-(4-((1-(3-fluoropropyl)azetidin-3-yl)methyl)phenyl)-6,7-dihydro-5H-benzo[7]annulene-3-carboxylic acid, hydrochloride]",95%
19,"Cc1c(O)cccc1C1=C(c2ccc(CC3CN(CCCF)C3)cc2)c2ccc(C(=O)O)cc2CCC1.Cl [Compound 61, 9-(4-((1-(3-fluoropropyl)azetidin-3-yl)methyl)phenyl)-8-(3-hydroxy-2-methylphenyl)-6,7-dihydro-5H-benzo[7]annulene-3-carboxylic acid, hydrochloride]",90%
20,"CC(F)(F)c1cc(F)ccc1C1=C(c2ccc(CC3CN(CCCF)C3)cc2)c2ccc(C(=O)O)cc2CCC1 [Compound 62, 8-(2-(1,1-difluoroethyl)-4-fluorophenyl)-9-(4-((1-(3-fluoropropyl)azetidin-3-yl)methyl)phenyl)-6,7-dihydro-5H-benzo[7]annulene-3-carboxylic acid]",95%
21,"COc1cccc(C(F)(F)F)c1C1=C(c2ccc(CC3CN(CCCF)C3)cc2)c2ccc(C(=O)O)cc2CCC1 [Compound 63, 9-(4-((1-(3-fluoropropyl)azetidin-3-yl)methyl)phenyl)-8-(2-methoxy-6-(trifluoromethyl)phenyl)-6,7-dihydro-5H-benzo[7]annulene-3-carboxylic acid]",90%

# Reference: patent publication US20250263390A1, “NOVEL SUBSTITUTED 6,7-DIHYDRO-5H-BENZO[7]ANNULENE COMPOUNDS AND THEIR DERIVATIVES, PROCESSES FOR THEIR PREPARATION AND THERAPEUTIC USES THEREOF” (SANOFI, priority 2022, published 2025)
